Results: PubChem BioAssay AID1419 (Emory University Molecular Libraries Screening Center, 2008)
The source made the active and inactive calls. How the calls were made is not given here.

Assay: blockers of an Epstein-Barr virus protein-peptide interaction – biochemical, fluorescence polarization, dose response (AID 1419)
Conditions: cell-free protein-peptide binding, 2 h; for fold change: measured here: P channel fold over control, at 54 µM

Row | SMILES | IC50 | fold change
1 | CCOC(=O)c1ccc(N2C(=O)C3C(C2=O)C(C(=O)c2ccc(Cl)cc2)N2CCCC32)cc1 (centres undefined) | 2.54 µM | 5.32
2 | N#C/C(=C\C1=C(N2CCOCC2)C(=C\c2ccccc2)/CC1)C(=O)Nc1ccccc1F | 1.23 µM | 2.94
3 | CCc1ccc[n+](-c2[nH]c(=O)sc2/C=N/NC([S-])=Nc2ccccc2)c1 | 22.1 µM | 2.13
4 | CCCCN1C(=O)/C(=C/C=C2\Oc3ccccc3N2CC)SC1=S | 5.36 µM | 13.9
5 | CC(=O)c1ccc(NC(=O)CSc2ccsc2[N+](=O)[O-])cc1 | > 54 µM (inactive) | 1.06
6 | CC1CN(c2nc3ccccc3nc2C(C#N)C(=O)NCc2ccc3c(c2)OCO3)CC(C)O1 (centres undefined) | 5.37 µM | 4.35
7 | CN(N=Nc1ccc([N+](=O)[O-])cc1)c1ccccc1 | 3.98 µM | 61.8
8 | C=CCN1C(=O)/C(=C/c2ccc(N(C)C)cc2)S/C1=N\c1nnc(CC)s1 | 9.51 µM | 10.2
9 | O=C(N=Nc1c(O)[nH]c2ccc([N+](=O)[O-])cc12)c1cc(-c2ccccc2Cl)nc2ccccc12 | 4.56 µM | 1.03
10 | O=C(N/N=C/c1ccc(Cl)cc1)c1nc2ccc([N+](=O)[O-])cc2c(=O)[nH]1 | > 54 µM (inactive) | 1.04
11 | O=C1c2cccc3c(O)ccc(c23)C(=O)N1Cc1ccco1 | < 0.42 µM | 134
12 | Cc1nc(NC(=O)c2ccccc2)sc1-c1csc(Nc2ccc(C(=O)O)cc2)n1 | 2.31 µM | 0.97
13 | O=C(N/N=C/c1cc(Cl)cc([N+](=O)[O-])c1O)NC12CC3CC(CC(C3)C1)C2 | > 54 µM (inactive) | 0.913
14 | CCCCCCOC(=O)C(C#N)c1nc2ccccc2nc1N1CCOCC1 (centres undefined) | 14.6 µM | 8.17
15 | Cc1ccc(N=Nc2[nH]c3ccccc3c2O)cc1 | 4.87 µM | 27
16 | O=c1c(O)cccc2cc(O)c(O)c(O)c12 | 2.85 µM | 1.86
17 | Nc1c(O)ccc2c1C(=O)c1ccccc1C2=O | 4.09 µM | 2.59
18 | Cc1c2ccccc2nc2c(F)c(NCCO)c(F)c(F)c12 | < 0.42 µM | 40.1
19 | O=C1CSC(=S)N1/N=C/c1ccc(O)c(O)c1O | 2.61 µM | 1.04
20 | CC(=O)N/N=C/c1cc(C(C)(C)C)cc(/C=N/NC(C)=O)c1O | 4.05 µM | 3.13
21 | O=C1C(Br)=Cc2cccc3cccc1c23 | 2 µM | 7.55

Row | SMILES | IC50 | fold change
22 | CN(C)c1ccc(/C=C/C(=O)c2cccc(Br)c2)cc1 | 8.66 µM | 11.4
23 | C=CCn1c(=O)/c(=C/c2cc(OC)c(OC)c(OC)c2)s/c1=C(/C#N)c1nc2ccccc2n1C | 3.5 µM | 15.9
24 | CCCCN1C(=O)C2Cc3c([nH]c4ccccc34)CN2C1=S (centres undefined) | 2.73 µM | 5.04
25 | Cc1ccc(N2C(=O)[C@@H]3[C@H](C2=O)C2c4ccccc4C=CN2[C@@H]3C(=O)c2ccco2)cc1 (some centres undefined) | 5.71 µM | 2.76
26 | N=c1oc2cc(O)ccc2cc1C(=O)Nc1nc2ccccc2s1 | 13 µM | 2.65
27 | CN(C)c1ccc(/C=N/NC(=O)c2cnc3ccccc3c2)cc1 | 18.6 µM | 3.11
28 | CCCCCn1c(N)c(-c2nc3ccccc3o2)c2c([N+](=O)[O-])nn(CC)c(=O)c21 | > 54 µM (inactive) | 0.747
29 | CCCCNc1ccc2c3c(cccc13)C(=O)N(CCCC)C2=O | < 0.42 µM | 98.3
30 | Cc1cc(/C=C2\SC(=S)N(Cc3ccco3)C2=O)c(C)n1-c1cccnc1 | 8.64 µM | 18.3
31 | Cc1nc2ccccc2n2c(O)c(CC(=O)O)cc12 | > 54 µM (inactive) | 7.32
32 | COc1ccc(CCNc2nc(-c3cccnc3)cs2)cc1OC | > 54 µM (inactive) | 1.04
33 | OCCCc1nc2n(n1)C(c1cccs1)C=C(c1ccccc1)N2 (centres undefined) | < 0.42 µM | 43.2
34 | N#C/C(=C\c1sc(N2CCOCC2)nc1-c1ccccc1)C(=O)Nc1cccc2ccccc12 | 30.8 µM (inactive) | 3.26
35 | CC(C)Oc1ccc(NC(=O)CCC(=O)O)cc1 | > 54 µM (inactive) | 1.01
36 | O=C(O)c1ccccc1C1=Nc2ccc(O)cc2Oc2cc(O)ccc21 | < 0.42 µM | 14.2
37 | O=C(O)CCC(=O)NCCC1=c2ccccc2=N/C1=C\c1c(O)n(Cc2ccc(F)cc2)c(=S)[nH]c1=O | 4.53 µM | 1.16
38 | Cc1cccc2cc3c(N)c(C(=O)N4CCCc5ccccc54)sc3nc12 | 9.62 µM | 4.66
39 | COc1ccc(N=Nc2nc3ccc(Br)cc3n2C)cc1 | > 54 µM (inactive) | 1.28
40 | CCc1ccc2nc3sc(C(=O)N4CCc5ccccc54)c(N)c3cc2c1 | < 0.42 µM | 16.6
41 | O=C(NCc1ccco1)c1c2c(nc3ccccc13)CCC2 | > 54 µM (inactive) | 1.05
42 | CC(C)OC(=O)CC(=O)c1sc2nc3c(cc2c1N)CN(C)CC3 | > 54 µM (inactive) | 1.29

Row | SMILES | IC50 | fold change
43 | COc1ccc(-c2c(C#N)c(N)nc3sc(C(=O)c4ccc(C)cc4)c(N)c23)cc1 | 23.5 µM | 5.33
44 | O=c1[nH]c2c(s1)C=Nc1ccccc1N2 | 0.81 µM | 9.16
45 | Cc1ccc2c3c(cccc13)-c1ccccc1C2=O | 2.37 µM | 2.72
46 | Cn1c(SCC(=O)Nc2ccc3nc(SCC(=O)N4CCCC4)sc3c2)nnc1-c1ccccc1 | > 54 µM (inactive) | 1.08
47 | Cc1ccc(C2C3=C(CCCC3=O)Nc3[nH]c(=S)[nH]c(=O)c32)cc1 (centres undefined) | > 54 µM (inactive) | 0.983
48 | N=C1/C(=C\c2ccc(-c3ccc(C(=O)O)cc3)o2)C(=O)N=C2SC=C(c3ccccc3)N12 | 3.3 µM | 1.28
49 | CCOC(=O)Cn1c2ccc(OC)cc2c2nc3ccccc3nc21 | 0.79 µM | 6.57
50 | Cc1ccc2oc(=O)c(/C=C(\O)c3ccccc3)nc2c1 | 35.4 µM (inactive) | 2.39
51 | CCn1c(COc2ccccc2C)nnc1SCC(=O)N1CCC(C)CC1 | > 54 µM (inactive) | 0.897
52 | COc1ccc(C2C(C(C)=O)=C(C)N=c3s/c(=C\c4cc(C)n(C)c4C)c(=O)n32)c(OC)c1 (centres undefined) | 4.29 µM | 11.8
53 | Cc1ccc(N=Nc2c(O)n(CN3CCOCC3)c3ccccc23)cc1 | 2.43 µM | 10.9
54 | CCn1c2ccccc2c2cc(NC(=O)c3ccc(=O)oc3)ccc21 | > 54 µM (inactive) | 1.77
55 | Cn1nc([N+](=O)[O-])c(C(C#N)c2nc3ccccc3n2C)c(Cl)c1=O (centres undefined) | 2.39 µM | 2.35
56 | OCCCc1nc2n(n1)C(c1cccs1)C=C(c1ccc(Br)cc1)N2 (centres undefined) | < 0.42 µM | 37.6
57 | COCCCn1c(=NC(=O)c2ccccc2)c(C#N)cc2c(=O)n3cccc(C)c3nc21 | 3.88 µM | 4.43
58 | Cc1cccn2c(=O)c(/C=C3\SC(=S)N(CC(C)C)C3=O)c(NCCCOC(C)C)nc12 | > 54 µM (inactive) | 1.37
59 | N#Cc1c2nc3ccccc3nc2n2cc(NC(=O)c3ccc(F)cc3)ccc12 | 4.15 µM | 0.583
60 | COc1ccc(-n2c(C)cc(/C=C3/SC(=S)N(C)C3=O)c2C)cc1 | 23.5 µM | 7.53
61 | Cc1cc(/C=C(\C#N)c2nc3ccccc3[nH]2)c(C)n1C | 1.32 µM | 6.63
62 | C=CCn1c(C)cc(C(=O)COC(=O)COc2ccccc2C#N)c1C | > 54 µM (inactive) | 1.04
63 | O=C(c1ccc(Cl)cc1)C1C2C(=O)N(c3ccccc3)C(=O)C2C2CCCN21 (centres undefined) | < 0.42 µM | 8

Row | SMILES | IC50 | fold change
64 | Cn1cccc1/C=C1/C(=O)NC(=O)N(Cc2ccc(F)cc2)C1=O | > 54 µM (inactive) | 1.04
65 | Cc1ncc([N+](=O)[O-])n1Cc1cccc2ccccc12 | > 54 µM (inactive) | 0.957
66 | COC(=O)CN1C(=O)N(c2ccccc2)C(N(O)C(=O)Nc2ccccc2)C1(C)C (centres undefined) | > 54 µM (inactive) | 1
67 | COc1ccc(NC(=O)CSc2ccc3c4c(cccc24)C(=O)c2ccccc2-3)cc1 | 3.14 µM | 11
68 | COC(=O)c1cc(NC(=O)c2ccccc2)c(=O)oc1/C=C/Nc1ccc(Oc2ccccc2)cc1 | 1.4 µM | 22
69 | COc1ncnc2c1NC1=C(S2)C(=NCCC(=O)O)CC(C)(C)C1 | 0.93 µM | 8.12
70 | COc1ccc(N=Cc2cc(Cc3ccccc3Cl)cc([N+](=O)[O-])c2O)cc1OC | 13.8 µM | 2.41
71 | COc1ccccc1NC(=O)CC(c1ccc(OC(C)C)cc1)c1ccccc1OC (centres undefined) | > 54 µM (inactive) | 0.927
72 | N#CC1=C(N)N2C(=C(C#N)C1c1ccccc1)Sc1ccccc12 (centres undefined) | > 54 µM (inactive) | 2.54
73 | CCOc1cc(/C=C(\C#N)c2nc(-c3cccs3)c(NC(C)=O)s2)ccc1O | 3.62 µM | 5.84
74 | CCN(CC)c1ccc(/C=C/C(=O)c2ccc(Br)cc2)cc1 | 2.64 µM | 31.1
75 | CCN1CC=C2C(C1)C(c1ccc(Cl)s1)C(C#N)=C(N)C2(C#N)C#N (centres undefined) | 0.95 µM | 9.28
76 | Cc1nnc(N2C(=O)C(O)=C(C(=O)c3ccco3)C2c2ccc(C(C)C)cc2)s1 (centres undefined) | 2.2 µM | 3.11
77 | O=[N+]([O-])c1ccc(-c2cn(-c3ccc(Cl)cc3)c(=S)[nH]2)cc1 | > 54 µM (inactive) | 0.93
78 | CC(C)c1cc(=O)oc2c3c4c(cc12)CCCN4CCC3 | 1.88 µM | 5.95
79 | CC(=O)Nc1ccc2cc3ccc(NC(C)=O)cc3nc2c1 | 0.56 µM | 12.5
80 | O=C1Nc2cc(Cl)cnc2N2CCCC12 (centres undefined) | > 54 µM (inactive) | 1.68
81 | O=C(O)/C=C/c1cn(-c2ccccc2)nc1-c1ccc(-c2ccc([N+](=O)[O-])cc2)o1 | 5.25 µM | 2.34
82 | N#C/C(=C(/O)c1ccc(-c2cccc([N+](=O)[O-])c2)o1)c1nc2ccccc2s1 | 7.24 µM | 1.09
